The results in this text go back to patent US9993001B2, “Herbicidal composition” (ISHIHARA SANGYO KAISHA, LTD., priority 2014, dated 2018).

SMILES strings stand for the structures.

Format in all cases: in vivo
Assay [1] relates to common lambsquarters (Chenopodium album L.). As to the kind of experiment: Test Example 30: pot, soil treatment, metobromuron + thiobencarb. Particulars: soil treatment, pot, 20th day after treatment, read-out: Growth inhibition rate of common lambsquarters (%) Measured value. From the text: (§1) When the herbicidal activity in a case where two active ingredients are combined, is larger than the simple sum of the respective herbicidal activities of the two active ingredients (the expected activity), it is called a synergistic effect. The activity expected by the combination of two active ingredients can be calculated as follows (Colby S. R., “Weed”, vol. 15, p. 20-22, 1967). E=α+β−(α×β[…]) where α: growth inhibition rate when treated with x (g/ha) of herbicide X, • β: growth inhibition rate when treated with y (g/ha) of herbicide Y, • E: growth inhibition rate expected when treated with x (g/ha) of herbicide X and y (g/ha) of herbicide Y.
(§2) On the 19th day after treatment, the state of growth of barnyardgrass was visually observed and evaluated in accordance with the following standards. The growth inhibition rate (%) [measured value] and the growth inhibition rate (%) [calculated value] calculated by the Colby's method, are shown in Table 2.
(§3) Growth inhibition rate (%)=inhibition rate) (%) of 0 (equivalent to the non-treated area) to 100 (complete kill)
(§4) Soil was put into a 1/300,000 ha pot, and seeds of common lambsquarters (Chenopodium album L.) were sown. On the day after seeding, predetermined amounts of SC containing metobromuron as active ingredient (same as in Test Example 1) and EC containing thiobencarb as active ingredient (trade name: Saturn NYUZAI, manufactured by KUMIAI CHEMICAL INDUSTRY Co., Ltd.) were diluted with water corresponding to 1,000 L per hectare and applied for soil treatment.
(§5) On the 20th day after treatment, the state of growth of common lambsquarters was visually observed and evaluated in the same manner as in Test Example 1.

The subject of assay [2] is black nightshade (Solanum nigrum L.). As to the kind of experiment: Test Example 31: pot, soil treatment, metobromuron + thiobencarb. Conditions: soil treatment, pot, 20th day after treatment, read-out: Growth inhibition rate of black nightshade (%) Measured value.
From the text: as §1, §2, §3, §4, §5
The test was carried out in the same manner as in Test Example 30 except that common lambsquarters (Chenopodium album L.) was changed to black nightshade (Solanum nigrum L.), to obtain the results as shown in Table 32.

In assay [3] the test system is velvetleaf (Abutilon theophrasti MEDIC.). As to the kind of experiment: Test Example 13: pot, soil treatment, metobromuron + pyroxasulfone. Conditions: soil treatment, pot, 12th day after treatment, read-out: Growth inhibition rate of velvetleaf (%) Measured value.
From the text: as §1, §2, §3
Soil was put into a 1/300,000 ha pot, and seeds of velvetleaf (Abutilon theophrasti MEDIC.) were sown. Prior to germination of velvetleaf, predetermined amounts of SC containing metobromuron as active ingredient (same as in Test Example 1) and WG containing pyroxasulfone as active ingredient (trade name: Sakura 850 WG, manufactured by Bayer CropScience) were diluted with water corresponding to 1,000 L per hectare and applied for soil treatment.
On the 12th day after treatment, the state of growth of velvetleaf was visually observed and evaluated in the same manner as in Test Example 1.

Assay [4] deals with black nightshade (Solanum nigrum L.). Nature of the assay: Test Example 14: pot, soil treatment, metobromuron + pyroxasulfone. Particulars: soil treatment, pot, 12th day after treatment, read-out: Growth inhibition rate of black nightshade (%) Measured value.
From the text: as §1, §2, §3
Soil was put into a 1/300,000 ha pot, and seeds of black nightshade (Solanum nigrum L.) were sown. Prior to germination of black nightshade, predetermined amounts of SC containing metobromuron as active ingredient (same as in Test Example 1) and WG containing pyroxasulfone as active ingredient (same as in Test Example 13) were diluted with water corresponding to 1,000 L per hectare and applied for soil treatment.
On the 12th day after treatment, the state of growth of black nightshade was visually observed and evaluated in the same manner as in Test Example 1.

The test system is the same in assay [5]. Nature of the assay: Test Example 26: pot, soil treatment, metobromuron + prosulfocarb. Particulars: soil treatment, pot, 21st day after treatment, read-out: Growth inhibition rate of black nightshade (%) Measured value.
From the text: as §1, §2, §3
(§6) Soil was put into a 1/300,000 ha pot, and seeds of black nightshade (Solanum nigrum L.) were sown. On the day after seeding, predetermined amounts of SC containing metobromuron as active ingredient (same as in Test Example 1) and EC containing prosulfocarb as active ingredient (trade name: BOXER NYUZAI, manufactured by Syngenta) were diluted with water corresponding to 1,000 L per hectare and applied for soil treatment.
(§7) On the 21st day after treatment, the state of growth of black nightshade was visually observed and evaluated in the same manner as in Test Example 1.

Assay [6] relates to large crabgrass (Digitaria sanquinalis L.). As to the kind of experiment: Test Example 29: pot, soil treatment, metobromuron + indanofan. Conditions: soil treatment, pot, 20th day after treatment, read-out: Growth inhibition rate of large crabgrass (%) Measured value.
From the text: as §1, §2, §3
Soil was put into a 1/300,000 ha pot, and seeds of large crabgrass (Digitaria sanquinalis L.) were sown. On the day after seeding, predetermined amounts of SC containing metobromuron as active ingredient (same as in Test Example 1) and WP containing indanofan as active ingredient were diluted with water corresponding to 1,000 L per hectare and applied for soil treatment.
On the 20th day after treatment, the state of growth of large crabgrass was visually observed and evaluated in the same manner as in Test Example 1.

In assay [7] the test system is black nightshade (Solanum nigrum L.). As to the kind of experiment: Test Example 27: pot, soil treatment, metobromuron + flufenacet. Particulars: soil treatment, pot, 21st day after treatment, read-out: Growth inhibition rate of black nightshade (%) Measured value.
From the text: as §1, §2, §3, §6, §7
The test was carried out in the same manner as in Test Example 26 except that EC containing prosulfocarb as active ingredient was changed to SC containing flufenacet as active ingredient (trade name: Cadou, manufactured by Bayer CropScience), to obtain the results as shown in Table 28.

The subject of assay [8] is barnyardgrass (Echinochloa crus-qalli L.). As to the kind of experiment: Test Example 21: pot, soil treatment, metobromuron + prometryn. Particulars: soil treatment, pot, 21st day after treatment, read-out: Growth inhibition rate of barnyardgrass (%) Measured value.
From the text: as §1, §2, §3
(§8) Soil was put into a 1/300,000 ha pot, and seeds of barnyardgrass (Echinochloa crus-qalli L.) were sown. On the day after seeding, predetermined amounts of SC containing metobromuron as active ingredient (same as in Test Example 1) and WP containing prometryn as active ingredient (trade name: Gesagard 50, manufactured by Nippon Kayaku Co., Ltd.) were diluted with water corresponding to 1,000 L per hectare and applied for soil treatment.
(§9) On the 21st day after treatment, the state of growth of barnyardgrass was visually observed and evaluated in the same manner as in Test Example 1.

For assay [9], the system named is large crabgrass (Diqitaria sanquinalis L.). Nature of the assay: Test Example 22: pot, soil treatment, metobromuron + prometryn. Conditions: Digitaria sanguinalis, soil treatment, pot, 21st day after treatment, read-out: Growth inhibition rate of large crabgrass (%) Measured value.
From the text: as §1, §2, §3, §8, §9
The test was carried out in the same manner as in Test Example 21 except that barnyardgrass (Echinochloa crus-qalli L.) was changed to large crabgrass (Diqitaria sanquinalis L.), to obtain the results as shown in Table 23.

`CCN(CC)C(=O)SCc1ccc(Cl)cc1` [Thiobencarb, S-4-chlorobenzyl diethyl(thiocarbamate)]: the inhibition at 296.3 g/ha in assay [1] (296.3 g/ha) turned out to be 0%; in [2] (296.3 g/ha), 25%. Further, the figures for the inhibition at 444.4 g/ha in assay [1] (444.4 g/ha) and in assay [2] (444.4 g/ha) were 0% and 23%, respectively. In addition, the inhibition at 666.7 g/ha amounted to 0% in [1] (666.7 g/ha) and 20% in assay [2] (666.7 g/ha).

With `Cn1nc(C(F)(F)F)c(CS(=O)(=O)C2=NOC(C)(C)C2)c1OC(F)F` [Pyroxasulfone, 3-[5-(difluoromethoxy)-1-methyl-3-(trifluoromethyl)pyrazol-4-ylmethylsulfonyl]-4,5-dihydro-5,5-dimethyl-1,2-oxazole], the inhibition at 25 g/ha in assay [3] (25 g/ha) was found to be 25%; in [4] (25 g/ha), 50%. The results for the inhibition at 33 g/ha in assay [3] (33 g/ha) and in assay [4] (33 g/ha) were 28% and 64%, respectively. Also, the values for the inhibition at 50 g/ha in assay [3] (50 g/ha) and in assay [4] (50 g/ha) were 38% and 73%, respectively.

Regarding `CCCN(CCC)C(=O)SCc1ccccc1` [Prosulfocarb, S-benzyl dipropyl(thiocarbamate)], the inhibition at 653.4 g/ha in assay [5] (653.4 g/ha) was determined as 50%. Also, in assay [5] (980 g/ha), the inhibition at 980 g/ha came to 50%. The inhibition at 1470 g/ha in assay [5] (1470 g/ha) was 50%.

With `CCC1(CC2(c3cccc(Cl)c3)CO2)C(=O)c2ccccc2C1=O` (racemic) [Indanofan, (RS)-2-[2-(3-chlorophenyl)-2,3-epoxypropyl]-2-ethyl indane-1,3-dione], in [6] (25 g/ha), the inhibition at 25 g/ha stood at 25%. For the same compound, the inhibition at 37.5 g/ha in assay [6] (37.5 g/ha) worked out at 25%. The inhibition at 56.3 g/ha in [6] (56.3 g/ha) came to 28%.

For `CC(C)N(C(=O)COc1nnc(C(F)(F)F)s1)c1ccc(F)cc1` [Flufenacet, 4′-fluoro-N-isopropyl-2-[5-(trifluoromethyl)-1,3,4-thiadiazol-2-yloxy] acetanilide], the inhibition at 83.35 g/ha in [7] (83.35 g/ha) was determined as 30%. In assay [7] (125 g/ha), the inhibition at 125 g/ha was found to be 25%. In addition, the inhibition at 187.5 g/ha in assay [7] (187.5 g/ha) came to 40%.

Turning to `CSc1nc(NC(C)C)nc(NC(C)C)n1` [Prometryn, N^2,N^4-diisopropyl-6-methylthio-1,3,5-triazine-2,4-diamine], the inhibition at 300 g/ha is 15% in assay [8] (300 g/ha) and 62% in [9] (300 g/ha). The inhibition at 400 g/ha was found to be 38% in assay [8] (400 g/ha) and 76% in assay [9] (400 g/ha).
